Columns and labels:
Format in all cases: in vivo, rat
[1] = tested on: left sciatic nerve of rats; assay: Sciatic nerve blocking experiment in rats (Von Frey filaments 60 g)
Description: The compounds of the examples were dissolved in water for injection to a concentration of 0.5-2.0 g/100 mL (0.5%-2%), or mixed with commercially-available clinically-common local anesthetic drugs to prepare a mixed solution with a specific proportion, and the 0.75% levobupivacaine was used as the positive control compound. The experimental method was as follows: male SD rats weighing 180-300 g were anesthetized with isoflurane, 0.2 mL of the drug-containing solution was injected near the left sciatic nerve of rats, and 8 rats were used for each drug for the experiment. After the rats woke up, the first measurement was performed, and then the measurement was performed every 2 hours. If there was still an anesthetic effect after six measurements, the measurement was performed every 6 hours until the anesthetic effect disappeared. The method for judging the existence of anesthetic effect was as follows. The skin of the sole and lateral surface of the hindlimb of the rat on the side injected with the drug was stimulated using Von Frey filaments (60 g). […] If there was no such behavior, it was considered that the local anesthetic effect existed.

[2] = tested on: male SD rats; assay: Subcutaneous infiltration anesthesia in rats (acupuncture stimulation of back skin); details: for Duration of local anesthesia: 0.4 mL subcutaneous
Description: The compounds of the examples were dissolved in water for injection to a concentration of 0.2-0.5 g/100 mL (0.2-0.5%), or mixed with commercially-available clinically-common local anesthetic drugs to prepare a mixed solution with a specific proportion, and the 0.75% levobupivacaine was used as the positive control compound. The experimental method was as follows: male SD rats weighing 180-300 g were shaved off back hair 1 day before the experiment, and a circular skin area with a diameter of 4 cm was exposed. 0.4 mL of the drug solution was subcutaneously injected to the exposed circular center on the back using a 1 mL syringe to form a skin mound. After 1 minute, the first measurement was performed. Each of 8 random parts around the center of the injection site was stimulated once by acupuncture of 15 g force using a 26G needle (the stimulation site was no more than 1 cm away from the injection center). […] If there was no such behavior, it was considered that the local anesthetic effect existed. […] Except for the first measurement, the measurement was performed every 2 hours within 12 hours after the administration, and every 6 hours after 12 hours after the administration. 8 rats were used for each drug for the experiment.

[3] = tested on: rats; assay: Mortality rate after injection of drugs through tail vein; details: 0.2% aqueous solution, 0.4 mL through tail vein, 10 rats
Description: 0.2% aqueous solution of the compounds of the present invention and 0.75% levobupivacaine solution were injected into the rats through tail vein in 0.4 mL, and the mortality rate was observed. Each drug was injected into 10 rats (half male and half female, weighing 290-310).

[4] = 0.5%, 0.2 mL near left sciatic nerve
[5] = 0.5 + 0.35% bupivacaine hydrochloride, 0.2 mL near sciatic nerve
[6] = 1.0%, 0.2 mL near left sciatic nerve
[7] = 2.0%, 0.2 mL near left sciatic nerve
[8] = 0.15 + 0.35% bupivacaine hydrochloride
[9] = 0.5 + 0.35% lidocaine hydrochloride, 0.2 mL near sciatic nerve
[10] = 0.15 + 0.35% lidocaine hydrochloride
[11] = 0.5 + 0.15% tetracaine hydrochloride, 0.2 mL near sciatic nerve
[12] = 0.15 + 0.15% tetracaine hydrochloride

Compound	Duration of local anesthesia [1, 4]	Duration of local anesthesia [1, 5]	Duration of local anesthesia [1, 6]	Duration of local anesthesia [1, 7]	Duration of local anesthesia [2, 8]	Duration of local anesthesia ([2]; 0.2%, rat back)	Duration of local anesthesia ([2]; 0.5%, rat back)	Mortality rate % [3]	Local anesthetic effect at the first measurement ([2]; injections of 0.2% and 0.5%, first measurement 1 minute after subcutaneous injection)	Duration of local anesthesia ([1]; 0.5 + 0.35% levobupivacaine hydrochloride, 0.2 mL near sciatic nerve)	Duration of local anesthesia ([2]; 0.15 + 0.35% levobupivacaine hydrochloride)	Duration of local anesthesia ([1]; 0.5 + 0.5% lidocaine hydrochloride, 0.2 mL near sciatic nerve)	Duration of local anesthesia ([2]; 0.15 + 0.5% lidocaine hydrochloride)	Duration of local anesthesia [1, 9]	Duration of local anesthesia [2, 10]	Duration of local anesthesia [1, 11]	Duration of local anesthesia [2, 12]	Duration of local anesthesia ([1]; 0.75%, 0.2 mL near left sciatic nerve)	Duration of local anesthesia ([2]; 0.75%, rat back)
CC[N+](CC)(CC)CC(=O)Nc1c(C)cc(O)cc1C [Compound 1]	4 to 10 h	18 to 30 h	12 to 18 h	30 to 48 h	24 to 30 h	6 to 8 h	10 to 12 h	0%	–	–	–	–	–	–	–	–	–	–	–
CC[N+](CC)(CC)CC(=O)Nc1c(C)cc(OC(C)=O)cc1C [Compound 3]	10 to 12 h	24 to 36 h	18 to 30 h	54 to 96 h	18 to 24 h	8 to 14 h	12 to 18 h	0%	–	–	–	–	–	–	–	–	–	–	–
CC[N+](CC)(CC)CC(=O)Nc1c(C)cc(N)cc1C [Compound 7]	<2 h	2 to 4 h	<2 h	2 to 4 h	4 to 6 h	2 to 4 h	2 to 4 h	–	not effective	–	–	–	–	–	–	–	–	–	–
CC[N+](CC)(CC)CC(=O)Nc1c(C)cc(OC(C)C)cc1C [Compound 15]	12 to 18 h	30 to 42 h	24 to 36 h	120 to 144 h	36 to 42 h	24 to 30 h	42 to 54 h	0%	–	–	–	–	–	–	–	–	–	–	–
CCCCCCOc1cc(C)c(NC(=O)C[N+](CC)(CC)CC)c(C)c1 [Compound 17]	24 to 42 h	48 to 66 h	42 to 66 h	96 to 144 h	54 to 72 h	36 to 48 h	54 to 60 h	0%	–	–	–	–	–	–	–	–	–	–	–
C=CC[N+]1(CC(=O)Nc2c(C)cc(OC(=O)CCC)cc2C)CCCCC1 [Compound 26]	24 to 30 h	–	48 to 60 h	96 to 160 h	–	24 to 36 h	54 to 66 h	0%	–	36 to 48 h	42 to 54 h	–	–	–	–	–	–	–	–
CCCCCOC(=O)Oc1cc(C)c(NC(=O)C[N+](CC)(CC)CC)c(C)c1 [Compound 27]	12 to 24 h	–	30 to 42 h	96 to 144 h	–	18 to 30 h	36 to 48 h	0%	–	–	–	36 to 66 h	36 to 60 h	–	–	–	–	–	–
CCCCCN(C)CC(=O)Oc1cc(C)c(NC(=O)C[N+](CC)(CC)CC)c(C)c1 [Compound 28]	30 to 36 h	–	48 to 60 h	120 to 144 h	–	36 to 48 h	54 to 72 h	0%	–	–	–	–	–	48 to 54 h	54 to 66 h	–	–	–	–
CC[N+](CC)(CCO)CC(=O)Nc1c(C)cc(OC(=O)CCCc2ccc(Cl)cc2)cc1C [Compound 31]	12 to 18 h	–	24 to 30 h	72 to 120 h	–	24 to 30 h	36 to 54 h	0%	–	–	–	–	–	24 to 42 h	36 to 42 h	–	–	–	–
CCCC(=O)Oc1cc(C)c(NC(=O)C2CCCC[N+]2(C)CCC)c(C)c1 (stereo not shown) [Compound 33]	24 to 30 h	–	48 to 66 h	120 to 144 h	–	36 to 54 h	60 to 72 h	0%	–	–	–	–	–	–	–	60 to 84 h	66 to 84 h	–	–
CCN(CCCCCOc1cc(C)c(NC(=O)C[N+](CC)(CC)CC)c(C)c1)CC(=O)Nc1c(C)cccc1C [Compound 45]	18 to 24 h	–	30 to 42 h	96 to 120 h	–	24 to 36 h	42 to 60 h	0%	–	–	–	–	–	–	–	36 to 42 h	36 to 48 h	–	–
CC[N+](CC)(CC)CC(=O)Nc1c(C)cc(OC(=O)OCCCN2CCCCC2C(=O)Nc2c(C)cccc2C)cc1C (stereo not shown) [Compound 48]	24 to 36 h	–	54 to 72 h	120 to 160 h	–	36 to 54 h	60 to 78 h	0%	–	–	–	–	–	–	–	60 to 72 h	66 to 72 h	–	–
CC[N+](CC)(CC)CC(=O)Nc1c(C)cc(OC(=O)CCCCCCCN2CCCCC2C(=O)Nc2c(C)cccc2C)cc1C (stereo not shown) [Compound 50]	24 to 30 h	–	36 to 48 h	96 to 120 h	–	18 to 30 h	24 to 48 h	0%	–	–	–	–	–	–	–	36 to 60 h	42 to 54 h	–	–
CCCCN1CCCCC1C(=O)Nc1c(C)cccc1C (stereo not shown) [bupivacaine, reference compound]	–	–	–	–	–	–	–	–	–	–	–	–	–	–	–	–	–	2 to 6 h	4 to 6 h

From US20230183169A1, “AROMATIC COMPOUND, PREPARATION METHOD THEREFOR AND USE THEREOF IN DRUG” (SICHUAN ACADEMY OF MEDICAL SCIENCES - SICHUAN PROVINCIAL …, priority 2020, published 2023)
